Test results reported in patent publication US9284284B2, “Oxazine derivatives and their use in the treatment of disease” (NOVARTIS AG, priority 2011, dated 2016).
Structures can show the parent of a compound that is named as a salt.

Tests used:
[1] = target: human BACE-1 (Homo sapiens (Human), UniProt P56817); assay: Test 1: Inhibition of Human BACE-1; format: biochemical; details: recombinant BACE-1, pH 4.5, fluorescence-quenched substrate
Protocol: Test 1: Inhibition of Human BACE-1
(§1) Recombinant BACE-1 (extracellular domain, expressed in baculovirus and purified using standard methods) at 0.1 to 1 nM concentrations is incubated with the test compound at various concentrations for 1 hour at room temperature in 100 mM acetate buffer, pH 4.5, containing 0.1% CHAPS. Activity was measured using a final concentration of 3 μM of the fluorescence-quenched substrate Q-C(HSO3)-Ile-Asp-Leu-Ala-Val-Leu-Asp-HN—CH2—CH2-Mca, where Q=2-nitro-5-amino benzoic acid and Mca=7-methoxy-4-coumarinyl acetic acid. […] Fluorescence increase was followed for 15 min, in 1 minute's intervals. The fluorescence/time slopes were calculated from duplicate wells and from wells without inhibitor and the IC50 values were calculated using a logistic 4-parameter model.

[2] = target: human BACE-2 (Homo sapiens (Human), UniProt Q9Y5Z0); assay: Test 2: Inhibition of Human BACE-2; format: biochemical; details: recombinant BACE-2, pH 4.5, fluorescence-quenched substrate
Protocol: Test 2: Inhibition of Human BACE-2
as §1, with “BACE-2” for “BACE-1”

[3] = test system: amyloid peptide 1-40 release; assay: Test 4: Inhibition of Cellular Release of Amyloid Peptide 1-40; format: cell-based; details: Cricetulus griseus; Chinese hamster ovary cells transfected with the human gene for amyloid precursor protein, 24 hours; read-out: Amyloid-β1-40 release IC50
Protocol: Chinese hamster ovary cells are transfected with the human gene for amyloid precursor protein. The cells are plated at a density of 8000 cells/well into 96-well microtiter plates and cultivated for 24 hours in DMEM cell culture medium containing 10% FCS. The test compound is added to the cells at various concentrations, and the cells are cultivated for 24 hours in the presence of the test compound. […] The potency of the compound is calculated from the percentage of inhibition of amyloid peptide release as a function of the test compound concentration.

Sequence of human BACE-2 (Q9Y5Z0 63-473): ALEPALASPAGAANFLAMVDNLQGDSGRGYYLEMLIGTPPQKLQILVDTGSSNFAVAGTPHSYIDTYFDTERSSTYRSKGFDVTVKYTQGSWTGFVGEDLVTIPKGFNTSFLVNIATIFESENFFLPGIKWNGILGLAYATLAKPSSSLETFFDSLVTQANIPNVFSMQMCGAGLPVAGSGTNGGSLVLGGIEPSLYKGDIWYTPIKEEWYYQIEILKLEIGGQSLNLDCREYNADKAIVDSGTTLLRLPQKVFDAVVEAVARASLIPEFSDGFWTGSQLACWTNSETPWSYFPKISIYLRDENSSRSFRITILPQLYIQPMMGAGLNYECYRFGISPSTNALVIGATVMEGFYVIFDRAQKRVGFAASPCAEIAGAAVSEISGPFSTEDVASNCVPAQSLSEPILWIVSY
Sequence of human BACE-1 (P56817 46-457): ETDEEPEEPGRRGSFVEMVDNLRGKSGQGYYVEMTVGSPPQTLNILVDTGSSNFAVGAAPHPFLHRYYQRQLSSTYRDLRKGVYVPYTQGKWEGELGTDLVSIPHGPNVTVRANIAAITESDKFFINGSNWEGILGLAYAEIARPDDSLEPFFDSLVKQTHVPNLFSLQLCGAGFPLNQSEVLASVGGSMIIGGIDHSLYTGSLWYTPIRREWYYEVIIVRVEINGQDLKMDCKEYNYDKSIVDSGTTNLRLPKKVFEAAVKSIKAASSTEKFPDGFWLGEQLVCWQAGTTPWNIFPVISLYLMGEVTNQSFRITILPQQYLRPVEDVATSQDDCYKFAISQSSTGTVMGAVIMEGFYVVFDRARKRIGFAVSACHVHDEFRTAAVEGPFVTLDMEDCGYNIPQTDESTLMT

IC50 [1]	IC50 [2]	IC50 [3]	Structure (SMILES)
3000 nM	660 nM	2000 nM	COc1cc(N)cnc1Nc1ccc(F)c([C@]2(C(F)F)COCC(N)=N2)c1 [Example 27, N*2*-[3-((R)-5-Amino-3-difluoromethyl-3,6-dihydro-2H-[1,4]oxazin-3-yl)-4-fluoro-phenyl]-3-methoxy-pyridine-2,5-diamine]
210 nM	27 nM	220 nM	COc1cccnc1Nc1ccc(F)c([C@]2(C)CO[C@@](C)(C(F)(F)F)C(N)=N2)c1 [Example 25, (2R,5R)-5-[2-Fluoro-5-(3-methoxy-pyridin-2-ylamino)-phenyl]-2,5-dimethyl-2-trifluoromethyl-5,6-dihydro-2H-[1,4]oxazin-3-ylamine]
8900 nM	3200 nM	7100 nM	CC1(c2cccc(Nc3noc4ccccc34)c2)COCC(N)=N1 (centres unmarked) [Example 3, [3-(5-Amino-3-methyl-3,6-dihydro-2H-[1,4]oxazin-3-yl)-phenyl]-benzo[d]isoxazol-3-yl-amine]
1500 nM	560 nM	430 nM	COc1cncnc1Nc1ccc(F)c([C@]2(C(F)F)COCC(N)=N2)c1 [Example 21, (R)-5-Difluoromethyl-5-[2-fluoro-5-(5-methoxy-pyrimidin-4-ylamino)-phenyl]-5,6-dihydro-2H-[1,4]oxazin-3-ylamine]
1800 nM	670 nM	400 nM	COc1ccnc(Nc2ccc(F)c([C@]3(C(F)F)COCC(N)=N3)c2)n1 [Example 17, (R)-5-Difluoromethyl-5-[2-fluoro-5-(4-methoxy-pyrimidin-2-ylamino)-phenyl]-5,6-dihydro-2H-[1,4]oxazin-3-ylamine]
350 nM	72 nM	86 nM	Cc1cn2ccnc(Nc3ccc(F)c([C@]4(C(F)F)COCC(N)=N4)c3)c2n1 [Example 12, [3-((R)-5-Amino-3-difluoromethyl-3,6-dihydro-2H-[1,4]oxazin-3-yl)-4-fluoro-phenyl]-(2-methyl-imidazo[1,2-a]pyrazin-8-yl)-amine]
83 nM	280 nM	46 nM	C[C@@]1(c2cc(Nc3ncnc4cc(C(F)(F)F)cnc34)ccc2F)CO[C@@](C)(C(F)(F)F)C(N)=N1 [Example 24, [3-((3R,6R)-5-Amino-3,6-dimethyl-6-trifluoromethyl-3,6-dihydro-2H-[1,4]oxazin-3-yl)-4-fluoro-phenyl]-(7-trifluoromethyl-pyrido[3,2-d]pyrimidin-4-yl)-amine]
> 10000 nM	> 10000 nM	–	COc1c(N)ncnc1Nc1ccc(F)c([C@]2(C(F)F)COCC(N)=N2)c1 [N-[3-((R)-5-amino-3-difluoromethyl-3,6-dihydro-2H-[1,4]oxazin-3-yl)-4-fluoro-phenyl]-5-methoxy-pyrimidine-4,6-diamine]
21 nM	11 nM	33 nM	NC1=N[C@@](c2cc(Nc3nccc4cc(Br)cnc34)ccc2F)(C(F)F)COC1 [Example 8, [3-((R)-5-Amino-3-difluoromethyl-3,6-dihydro-2H-[1,4]oxazin-3-yl)-4-fluoro-phenyl]-(3-bromo-[1,7]naphthyridin-8-yl)-amine]
970 nM	340 nM	240 nM	NC1=N[C@@](c2cc(Nc3ncccc3OC(F)F)ccc2F)(C(F)F)COC1 [Example 22, (R)-5-[5-(3-Difluoromethoxy-pyridin-2-ylamino)-2-fluoro-phenyl]-5-difluoromethyl-5,6-dihydro-2H-[1,4]oxazin-3-ylamine]
600 nM	8200 nM	24 nM	COCCOc1cnc2c(Nc3ccc(F)c([C@]4(C(F)F)COCC(N)=N4)c3)nccc2c1 [Example 10, [3-((R)-5-Amino-3-difluoromethyl-3,6-dihydro-2H-[1,4]oxazin-3-yl)-4-fluoro-phenyl]-[3-(2-methoxy-ethoxy)-[1,7]naphthyridin-8-yl]-amine]
570 nM	1400 nM	220 nM	NC1=N[C@@](c2cc(Nc3nccn4c(Br)cnc34)ccc2F)(C(F)F)COC1 [Example 14, [3-((R)-5-Amino-3-difluoromethyl-3,6-dihydro-2H-[1,4]oxazin-3-yl)-4-fluoro-phenyl]-(3-bromo-imidazo[1,2-a]pyrazin-8-yl)-amine]
5200 nM	> 10000 nM	3500 nM	Cn1nc(Nc2cccc(C3(C)COCC(N)=N3)c2)c2ccc(Br)cc21 (centres unmarked) [Example 2, [3-(5-Amino-3-methyl-3,6-dihydro-2H-[1,4]oxazin-3-yl)-phenyl]-(6-bromo-1-methyl-1H-indazol-3-yl)-amine]
1500 nM	1900 nM	2900 nM	CC1(c2cccc(Nc3nsc4cc(Br)ccc34)c2)COCC(N)=N1 (centres unmarked) [Example 1, [3-(5-Amino-3-methyl-3,6-dihydro-2H-[1,4]oxazin-3-yl)-phenyl]-(6-bromo-benzo[d]isothiazol-3-yl)-amine]
1900 nM	5600 nM	250 nM	NC1=N[C@@](c2cc(Nc3nccc4cc(OCCCl)cnc34)ccc2F)(C(F)F)COC1 [Example 11]
6200 nM	8300 nM	740 nM	NC1=NC(c2cc(NCc3cc(Br)co3)ccc2F)(C(F)F)COC1 (centres unmarked) [Example 6, 5-{5-[(4-Bromo-furan-2-ylmethyl)-amino]-2-fluoro-phenyl}-5-difluoromethyl-5,6-dihydro-2H-[1,4]oxazin-3-ylamine]
3600 nM	5300 nM	1400 nM	NC1=NC(CF)(c2cc(NCc3ccc(Br)cc3Cl)ccc2F)COC1 (centres unmarked) [Example 5, 5-[5-(4-Bromo-2-chloro-benzylamino)-2-fluoro-phenyl]-5-fluoromethyl-5,6-dihydro-2H-[1,4]oxazin-3-ylamine]
2900 nM	1400 nM	690 nM	COc1cc([N+](=O)[O-])cnc1Nc1ccc(F)c([C@]2(C(F)F)COCC(N)=N2)c1 [Example 26, (R)-5-Difluoromethyl-5-[2-fluoro-5-(3-methoxy-5-nitro-pyridin-2-ylamino)-phenyl]-5,6-dihydro-2H-[1,4]oxazin-3-ylamine]
> 10000 nM	> 10000 nM	> 10000 nM	COc1cnc(N)nc1Nc1ccc(F)c([C@]2(C(F)F)COCC(N)=N2)c1 [N*4*-[3-((R)-5-amino-3-difluoromethyl-3,6-dihydro-2H-[1,4]oxazin-3-yl)-4-fluoro-phenyl]-5-methoxy-pyrimidine-2,4-diamine]
1500 nM	1600 nM	150 nM	C[C@@]1(c2nc(Nc3ncccc3C#N)ccc2F)CO[C@@](C)(C(F)(F)F)C(N)=N1 [Example 30, 2-[6-((3R,6R)-5-Amino-3,6-dimethyl-6-trifluoromethyl-3,6-dihydro-2H-[1,4]oxazin-3-yl)-5-fluoro-pyridin-2-ylamino]-nicotinonitrile]
6400 nM	1700 nM	1000 nM	COc1cccnc1Nc1ccc(F)c([C@]2(C)CO[C@@](C)(C(F)(F)F)C(N)=N2)n1 [Example 31, (2R,5R)-5-[3-Fluoro-6-(3-methoxy-pyridin-2-ylamino)-pyridin-2-yl]-2,5-dimethyl-2-trifluoromethyl-5,6-dihydro-2H-[1,4]oxazin-3-ylamine]
> 10000 nM	> 10000 nM	> 10000 nM	C[C@@]1(c2cccc(Nc3n[nH]c4ccccc34)c2)COCC(N)=N1 [[3-((R)-5-amino-3-methyl-3,6-dihydro-2H-[1,4]oxazin-3-yl)-phenyl]-(1H-indazol-3-yl)-amine]
18 nM	30 nM	5 nM	N#Cc1cnc2c(Nc3ccc(F)c([C@]4(C(F)F)COCC(N)=N4)c3)nccc2c1 [Example 9, 8-[3-((R)-5-Amino-3-difluoromethyl-3,6-dihydro-2H-[1,4]oxazin-3-yl)-4-fluoro-phenylamino]-[1,7]naphthyridine-3-carbonitrile]
40 nM	11 nM	51 nM	C[C@@]1(c2cc(Nc3ncnc4cc(Cl)cnc34)ccc2F)CO[C@@](C)(C(F)(F)F)C(N)=N1 [Example 23, [3-((3R,6R)-5-Amino-3,6-dimethyl-6-trifluoromethyl-3,6-dihydro-2H-[1,4]oxazin-3-yl)-4-fluoro-phenyl]-(7-chloro-pyrido[3,2-d]pyrimidin-4-yl)-amine di-hydrochloride]
1300 nM	220 nM	530 nM	NC1=N[C@@](c2cc(Nc3ncccc3OCC(F)F)ccc2F)(C(F)F)COC1 [Example 20, (R)-5-{5-[3-(2,2-Difluoro-ethoxy)-pyridin-2-ylamino]-2-fluoro-phenyl}-5-difluoromethyl-5,6-dihydro-2H-[1,4]oxazin-3-ylamine]
